In patent US9611256B2, “Alkyne-, azide- and triazole-containing flavonoids as modulators for multidrug resistance in cancers” (The Hong Kong Polytechnic University, priority 2012, dated 2017):

Experiments:
in vitro = details: mouse
[1] = system: P-gp, MRP1 and BCRP transporters; assay: Selectivity for ABC transporters, determined from % of reversion (Tables 1 and 2); assay type: cell-based, human; details: determined from % of reversion in Table 1 (>80% strongly, 79-50% moderately selective)
Excerpt: Generally, the triazole dimers library can be divided into mono-selective, dual-selective and multi-selective ABC transporter modulators. Table 2 summarizes the selectivity of different active triazole dimers and some monomeric azides for the ABC transporters. […] From the study, it seems that the simple monomeric azides could be a highly BCRP-selective inhibitor. […] It is possible that differently selective (mono-, dual- and multi-) inhibitors of drug transporters could be potentially useful tools for investigation of complicated drug-resistance phenotypes and eventually, for treatment of drug-resistant cancers caused by overexpression of ABC transporters.
The selectivity of active triazole compounds for various ABC transporters was determined from the Table 1. It would be considered as strongly selective if it causes >80% of reversion. It would be considered as moderately selective if it results in 79-50% of reversion. Overall, the active triazole compounds can be divided into mono-, dual- and multi-selective for P-gp, MRP1 and BCRP transporters.

Row | IC50 at 5 days (in vitro) [µM] | Selectivity for ABC transporters (P-gp, MRP1, BCRP) [1] | SMILES
1 |  | mono-BCRP selectivity | [N-]=[N+]=NCCOCCOCCOc1ccc(-c2cc(=O)c3cc(Cl)cc(Cl)c3o2)cc1 [Az6, 2-(4-(2-(2-(2-Azidoethoxy)ethoxy)ethoxy)phenyl)-6,8-dichloro-4H-chromen-4-one]
2 | < 12.1 | mono-BCRP selectivity | O=c1cc(-c2ccccc2)oc2cc(OCCOCCOCCn3cc(COCCOc4ccc5c(=O)cc(-c6ccccc6)oc5c4)nn3)ccc12 [Ac13Az12, 7-(2-((1-(2-(2-(2-((4-Oxo-2-phenyl-4H-chromen-7-yl)oxy)ethoxy)ethoxy)ethyl)-1H-1,2,3-triazol-4-yl)methoxy)ethoxy)-2-phenyl-4H-chromen-4-one]
3 |  | mono-BCRP selectivity | O=c1cc(-c2ccccc2)oc2cc(OCCOCCn3cc(COCCOc4ccc5c(=O)cc(-c6ccccc6)oc5c4)nn3)ccc12 [Ac13Az11, 7-(2-((1-(2-(2-((4-Oxo-2-phenyl-4H-chromen-7-yl)oxy)ethoxy)ethyl)-1H-1,2,3-triazol-4-yl)methoxy)ethoxy)-2-phenyl-4H-chromen-4-one]
4 |  | mono-BCRP selectivity | O=c1cc(-c2ccccc2)oc2cc(OCCOCCOCCn3cc(CN(Cc4ccccc4)Cc4cn(CCOCCOCCOc5ccc6c(=O)cc(-c7ccccc7)oc6c5)nn4)nn3)ccc12 [Ac15Az12, 7,7′-(((((((4,4′-((Benzylazanediyl)bis(methylene))bis(1H-1,2,3-triazole-4,1-diyl))bis(ethane-2,1-diyl))bis(oxy))bis(ethane-2,1-diyl))bis(oxy))bis(ethane-2,1-diyl))bis(oxy))bis(2-phenyl-4H-chromen-4-one)]
5 | 58.2 |  | C#CCN(CCOc1ccc2c(=O)cc(-c3ccccc3)oc2c1)Cc1ccccc1 [Ac16, 7-(2-(Benzyl(prop-2-yn-1-yl)amino)ethoxy)-2-phenyl-4H-chromen-4-one]
6 | > 100 |  | O=c1cc(-c2ccc(OCCOCCOCCn3cc(CN(CCOc4ccc5c(=O)cc(-c6ccccc6)oc5c4)Cc4ccccc4)nn3)cc2)oc2ccccc12 [Ac16Az2, 7-(2-(Benzyl((1-(2-(2-(2-(4-(4-oxo-4H-chromen-2-yl)phenoxy)ethoxy)ethoxy)ethyl)-1H-1,2,3-triazol-4-yl)methyl)amino)ethoxy)-2-phenyl-4H-chromen-4-one]
7 |  | mono-BCRP selectivity | [N-]=[N+]=NCCOCCOCCOc1ccc(-c2oc3ccccc3c(=O)c2OCc2ccccc2)cc1 [Az5, 2-(4-(2-(2-(2-Azidoethoxy)ethoxy)ethoxy)phenyl)-3-(benzyloxy)-4H-chromen-4-one]

The remaining lines, values behind:

Row | SMILES | IC50 at 5 days (in vitro) [µM] | Selectivity for ABC transporters (P-gp, MRP1, BCRP) [1]
8 | O=c1[nH]c(-c2ccc(OCCCc3cn(CCOCCOCCOc4ccc(-c5cc(=O)c6ccccc6o5)cc4)nn3)cc2)nc2ccccc12 [Ac11Az2, 2-(4-(3-(1-(2-(2-(2-(4-(4-oxo-4H-chromen-2-yl)phenoxy)ethoxy)ethoxy)ethyl)-1H-1,2,3-triazol-4-yl)propoxy)phenyl)quinazolin-4(3H)-one] | < 12.1 | 
9 | Cc1ccc2oc(-c3ccc(OCCCCc4cn(CCOCCOCCOc5ccc(-c6oc7ccccc7c(=O)c6O)cc5)nn4)cc3)cc(=O)c2c1 [Ac5Az5OH, 3-Hydroxy-2-(4-(2-(2-(2-(4-(4-(4-(6-methyl-4-oxo-4H-chromen-2-yl)phenoxy)butyl)-1H-1,2,3-triazol-1-yl)ethoxy)ethoxy)ethoxy)phenyl)-4H-chromen-4-one] | < 12.1 | 
10 | Cc1ccc2oc(-c3ccc(OCCCCc4cn(CCOCCOc5ccc(-c6oc7ccccc7c(=O)c6O)cc5)nn4)cc3)cc(=O)c2c1 [Ac5Az100H, 3-Hydroxy-2-(4-(2-(2-(4-(4-(4-(6-methyl-4-oxo-4H-chromen-2-yl)phenoxy)butyl)-1H-1,2,3-triazol-1-yl)ethoxy)ethoxy)phenyl)-4H-chromen-4-one] | < 12.1 | 
11 | O=c1cc(-c2ccccc2)oc2cc(OCCCCc3cn(CCOCCOCCOc4ccc(-c5oc6ccccc6c(=O)c5OCc5ccccc5)cc4)nn3)ccc12 [Ac12Az5, 3-(Benzyloxy)-2-(4-(2-(2-(2-(4-(4-((4-oxo-2-phenyl-4H-chromen-7-yl)oxy)butyl)-1H-1,2,3-triazol-1-yl)ethoxy)ethoxy)ethoxy)phenyl)-4H-chromen-4-one] |  | multi-selectivity towards P-gp, MRP1 and BCRP transporters
12 | Cc1ccc2oc(-c3ccc(OCCCCc4cn(CCOCCOCCOc5ccc(-c6cc(=O)c7cc(C)ccc7o6)cc5)nn4)cc3)cc(=O)c2c1 [Ac5Az3, 6-Methyl-2-(4-(2-(2-(2-(4-(4-(4-(6-methyl-4-oxo-4H-chromen-2-yl)phenoxy)butyl)-1H-1,2,3-triazol-1-yl)ethoxy)ethoxy)ethoxy)phenyl)-4H-chromen-4-one] |  | P-gp and MRP1-dual-selectivity
13 | Cc1ccc2oc(-c3ccc(OCCCCc4cn(CCN(CCOc5ccc6c(=O)cc(-c7ccccc7)oc6c5)Cc5ccccc5)nn4)cc3)cc(=O)c2c1 [Ac5Az15, 2-(4-(4-(1-(2-(Benzyl(2-((4-oxo-2-phenyl-4H-chromen-7-yl)oxy)ethyl)amino)ethyl)-1H-1,2,3-triazol-4-yl)butoxy)phenyl)-6-methyl-4H-chromen-4-one] |  | P-gp and MRP1-dual-selectivity
14 | COCOc1cc(OCc2ccccc2)c2c(=O)cc(-c3ccc(OCCCc4cn(CCOCCOc5ccc(-c6cc(=O)c7ccccc7o6)cc5)nn4)cc3)oc2c1 [Ac4Az1, 5-(Benzyloxy)-7-(methoxymethoxy)-2-(4-(3-(1-(2-(2-(4-(4-oxo-4H-chromen-2-yl)phenoxy)ethoxy)ethyl)-1H-1,2,3-triazol-4-yl)propoxy)phenyl)-4H-chromen-4-one] | < 12.1 | 
15 | C#CCOCCOc1ccc2c(=O)cc(-c3ccccc3)oc2c1 [Ac13, 2-Phenyl-7-(2-(prop-2-yn-1-yloxy)ethoxy)-4H-chromen-4-one] | 32.2 | 
16 | O=c1cc(-c2ccc(OCCOCCOCCn3cc(COCCOc4ccc5c(=O)cc(-c6ccccc6)oc5c4)nn3)cc2)oc2ccccc12 [Ac13Az2, 7-(2-((1-(2-(2-(2-(4-(4-Oxo-4H-chromen-2-yl)phenoxy)ethoxy)ethoxy)ethyl)-1H-1,2,3-triazol-4-yl)methoxy)ethoxy)-2-phenyl-4H-chromen-4-one] | < 12.1 | 
